Measured values published in ChEMBL document CHEMBL5108051, “Improving the Antimicrobial Performance of Amphiphilic Cationic Antimicrobial Peptides Using Glutamic Acid Full-Scan and Positive Charge Compensation Strategies” (J Med Chem, 2022).
In brackets after ≈: the same amount, converted by molar mass. Peptide text beside a SMILES is read from it.

What was measured:
[1] = tested on: Erythrocyte; experiment: Hemolytic activity against mouse RBC measured after 1 hrs; type: toxicity, cell-based
[2] = tested on: Bacillus subtilis; experiment: Antibacterial activity against Bacillus subtilis ATCC 23857 assessed as growth inhibition measured after 18 to 24 hrs by CLSI based broth microdilution method; type: functional; details: time 18-24 hrs
[3] = tested on: Pseudomonas aeruginosa; experiment: Antibacterial activity against Pseudomonas aeruginosa ATCC 27853 assessed as growth inhibition measured after 18 to 24 hrs by CLSI based broth microdilution method; type: functional; details: time 18-24 hrs
[4] = tested on: Escherichia coli; experiment: Antibacterial activity against Escherichia coli ATCC 25922 assessed as growth inhibition measured after 18 to 24 hrs by CLSI based broth microdilution method; type: functional; details: time 18-24 hrs
[5] = tested on: Staphylococcus aureus; experiment: Antibacterial activity against Staphylococcus aureus ATCC 25923 assessed as growth inhibition measured after 18 to 24 hrs by CLSI based broth microdilution method; type: functional; details: time 18-24 hrs
[6] = tested on: Klebsiella pneumoniae; experiment: Antibacterial activity against Klebsiella pneumoniae ATCC 700603 assessed as growth inhibition measured after 18 to 24 hrs by CLSI based broth microdilution method; type: functional; details: time 18-24 hrs

With `CC[C@H](C)[C@H](NC(=O)[C@@H]1CCCN1C(=O)[C@H](CC(C)C)NC(=O)[C@@H](N)CCC(=O)O)C(=O)N[C@H](C(=O)N[C@@H](C)C(=O)N[C@@H](CCCCN)C(=O)N[C@@H](CC(C)C)C(=O)N[C@@H](CC(C)C)C(=O)N[C@@H](CO)C(=O)NCC(=O)N[C@@H](CC(C)C)C(=O)N[C@@H](CC(C)C)C(N)=O)C(C)C` (H-ELPIVAKLLSGLL-NH2) the MHC10 [1] was greater than 256 µM, the MIC [2] was greater than 128 µM and the MIC [3] was greater than 128 µM. It also gave an MIC [4] greater than 128 µM, an MIC [5] greater than 128 µM and an MIC [6] greater than 128 µM.

`CC[C@H](C)[C@H](NC(=O)[C@@H]1CCCN1C(=O)[C@H](CCC(=O)O)NC(=O)[C@@H](N)Cc1ccccc1)C(=O)N[C@H](C(=O)N[C@@H](C)C(=O)N[C@@H](CCCCN)C(=O)N[C@@H](CC(C)C)C(=O)N[C@@H](CC(C)C)C(=O)N[C@@H](CO)C(=O)NCC(=O)N[C@@H](CC(C)C)C(=O)N[C@@H](CC(C)C)C(N)=O)C(C)C` (H-FEPIVAKLLSGLL-NH2) was tested, and the MHC10 [1] was greater than 256 µM, the MIC [2] was greater than 128 µM and the MIC [3] was greater than 128 µM. It also gave an MIC [4] greater than 128 µM, an MIC [5] greater than 128 µM and an MIC [6] greater than 128 µM.

Work on `CC[C@H](C)[C@H](NC(=O)[C@H](CCC(=O)O)NC(=O)[C@H](CC(C)C)NC(=O)[C@@H](N)Cc1ccccc1)C(=O)N[C@H](C(=O)N[C@@H](C)C(=O)N[C@@H](CCCCN)C(=O)N[C@@H](CC(C)C)C(=O)N[C@@H](CC(C)C)C(=O)N[C@@H](CO)C(=O)NCC(=O)N[C@@H](CC(C)C)C(=O)N[C@@H](CC(C)C)C(N)=O)C(C)C` (H-FLEIVAKLLSGLL-NH2) yielded an MHC10 [1] of 16.06 µM, an MIC [2] of 16 µM (≈ 22.6 µg/mL) and an MIC [3] greater than 128 µM. For the same molecule, the MIC [4] was greater than 128 µM, the MIC [5] was 16 µM (≈ 22.6 µg/mL) and the MIC [6] was greater than 128 µM.

`CC(C)C[C@H](NC(=O)[C@H](CC(C)C)NC(=O)CNC(=O)[C@H](CO)NC(=O)[C@H](CC(C)C)NC(=O)[C@H](CC(C)C)NC(=O)[C@H](CCCCN)NC(=O)[C@H](C)NC(=O)[C@@H](NC(=O)[C@H](CCC(=O)O)NC(=O)[C@@H]1CCCN1C(=O)[C@H](CC(C)C)NC(=O)[C@@H](N)Cc1ccccc1)C(C)C)C(N)=O` (H-FLPEVAKLLSGLL-NH2) was tested, and the MHC10 [1] was greater than 256 µM, the MIC [2] was greater than 128 µM and the MIC [3] was greater than 128 µM. It also gave an MIC [4] of 64 µM (≈ 89.5 µg/mL), an MIC [5] greater than 128 µM and an MIC [6] greater than 128 µM.

With `CC[C@H](C)[C@H](NC(=O)[C@@H]1CCCN1C(=O)[C@H](CC(C)C)NC(=O)[C@@H](N)Cc1ccccc1)C(=O)N[C@@H](CCC(=O)O)C(=O)N[C@@H](C)C(=O)N[C@@H](CCCCN)C(=O)N[C@@H](CC(C)C)C(=O)N[C@@H](CC(C)C)C(=O)N[C@@H](CO)C(=O)NCC(=O)N[C@@H](CC(C)C)C(=O)N[C@@H](CC(C)C)C(N)=O` (H-FLPIEAKLLSGLL-NH2) the MHC10 [1] was greater than 256 µM, the MIC [2] was greater than 128 µM and the MIC [3] was greater than 128 µM. For the same molecule, the MIC [4] was greater than 128 µM, the MIC [5] was greater than 128 µM and the MIC [6] was greater than 128 µM.

Work on `CC[C@H](C)[C@H](NC(=O)[C@@H]1CCCN1C(=O)[C@H](CC(C)C)NC(=O)[C@@H](N)Cc1ccccc1)C(=O)N[C@H](C(=O)N[C@@H](C)C(=O)N[C@@H](CCC(=O)O)C(=O)N[C@@H](CC(C)C)C(=O)N[C@@H](CC(C)C)C(=O)N[C@@H](CO)C(=O)NCC(=O)N[C@@H](CC(C)C)C(=O)N[C@@H](CC(C)C)C(N)=O)C(C)C` (H-FLPIVAELLSGLL-NH2) yielded an MHC10 [1] greater than 256 µM, an MIC [2] greater than 128 µM and an MIC [3] greater than 128 µM. It also gave an MIC [4] greater than 128 µM, an MIC [5] greater than 128 µM and an MIC [6] greater than 128 µM.

`CC[C@H](C)[C@H](NC(=O)[C@@H]1CCCN1C(=O)[C@H](CC(C)C)NC(=O)[C@@H](N)Cc1ccccc1)C(=O)N[C@H](C(=O)N[C@@H](C)C(=O)N[C@@H](CCCCN)C(=O)N[C@@H](CCC(=O)O)C(=O)N[C@@H](CC(C)C)C(=O)N[C@@H](CO)C(=O)NCC(=O)N[C@@H](CC(C)C)C(=O)N[C@@H](CC(C)C)C(N)=O)C(C)C` (H-FLPIVAKELSGLL-NH2) gave an MHC10 [1] greater than 256 µM, an MIC [2] greater than 128 µM and an MIC [3] greater than 128 µM. The MIC [4] was greater than 128 µM, the MIC [5] was greater than 128 µM and the MIC [6] was greater than 128 µM.

Work on `CC[C@H](C)[C@H](NC(=O)[C@@H]1CCCN1C(=O)[C@H](CC(C)C)NC(=O)[C@@H](N)Cc1ccccc1)C(=O)N[C@H](C(=O)N[C@@H](C)C(=O)N[C@@H](CCCCN)C(=O)N[C@@H](CC(C)C)C(=O)N[C@@H](CCC(=O)O)C(=O)N[C@@H](CO)C(=O)NCC(=O)N[C@@H](CC(C)C)C(=O)N[C@@H](CC(C)C)C(N)=O)C(C)C` (H-FLPIVAKLESGLL-NH2) yielded an MHC10 [1] greater than 256 µM, an MIC [2] greater than 128 µM and an MIC [3] greater than 128 µM. It also gave an MIC [4] greater than 128 µM, an MIC [5] greater than 128 µM and an MIC [6] greater than 128 µM.

With `CC[C@H](C)[C@H](NC(=O)[C@@H]1CCCN1C(=O)[C@H](CC(C)C)NC(=O)[C@@H](N)Cc1ccccc1)C(=O)N[C@H](C(=O)N[C@@H](C)C(=O)N[C@@H](CCCCN)C(=O)N[C@@H](CC(C)C)C(=O)N[C@@H](CC(C)C)C(=O)N[C@@H](CCC(=O)O)C(=O)NCC(=O)N[C@@H](CC(C)C)C(=O)N[C@@H](CC(C)C)C(N)=O)C(C)C` (H-FLPIVAKLLEGLL-NH2) the MHC10 [1] was 69.93 µM, the MIC [2] was 16 µM (≈ 22.8 µg/mL) and the MIC [3] was greater than 128 µM. It also gave an MIC [4] greater than 128 µM, an MIC [5] of 16 µM (≈ 22.8 µg/mL) and an MIC [6] greater than 128 µM.

`CC[C@H](C)[C@H](NC(=O)[C@@H]1CCCN1C(=O)[C@H](CC(C)C)NC(=O)[C@@H](N)Cc1ccccc1)C(=O)N[C@H](C(=O)N[C@@H](C)C(=O)N[C@@H](CCCCN)C(=O)N[C@@H](CC(C)C)C(=O)N[C@@H](CC(C)C)C(=O)N[C@@H](CCCCN)C(=O)NCC(=O)N[C@@H](CC(C)C)C(=O)N[C@@H](CC(C)C)C(N)=O)C(C)C` (H-FLPIVAKLLKGLL-NH2) gave an MHC10 [1] of 27.66 µM, an MIC [2] of 4 µM (≈ 5.7 µg/mL) and an MIC [3] greater than 128 µM. It also gave an MIC [4] greater than 128 µM, an MIC [5] of 8 µM (≈ 11.4 µg/mL) and an MIC [6] greater than 128 µM.

Molecule `CC[C@H](C)[C@H](NC(=O)[C@@H]1CCCN1C(=O)[C@H](CC(C)C)NC(=O)[C@@H](N)Cc1ccccc1)C(=O)N[C@H](C(=O)N[C@@H](C)C(=O)N[C@@H](CCCCN)C(=O)N[C@@H](CC(C)C)C(=O)N[C@@H](CC(C)C)C(=O)N[C@@H](CO)C(=O)N[C@@H](CCC(=O)O)C(=O)N[C@@H](CC(C)C)C(=O)N[C@@H](CC(C)C)C(N)=O)C(C)C` (H-FLPIVAKLLSELL-NH2) has an MHC10 [1] of 73.97 µM, an MIC [2] of 8 µM (≈ 11.6 µg/mL) and an MIC [3] greater than 128 µM. The MIC [4] was greater than 128 µM, the MIC [5] was 16 µM (≈ 23.3 µg/mL) and the MIC [6] was greater than 128 µM.

`CC[C@H](C)[C@H](NC(=O)[C@@H]1CCCN1C(=O)[C@H](CC(C)C)NC(=O)[C@@H](N)Cc1ccccc1)C(=O)N[C@H](C(=O)N[C@@H](C)C(=O)N[C@@H](CCCCN)C(=O)N[C@@H](CC(C)C)C(=O)N[C@@H](CC(C)C)C(=O)N[C@@H](CO)C(=O)NCC(=O)N[C@@H](CCC(=O)O)C(=O)N[C@@H](CC(C)C)C(N)=O)C(C)C` (H-FLPIVAKLLSGEL-NH2) gave an MHC10 [1] greater than 256 µM, an MIC [2] greater than 128 µM and an MIC [3] greater than 128 µM. It also gave an MIC [4] greater than 128 µM, an MIC [5] greater than 128 µM and an MIC [6] greater than 128 µM.

Work on `CC[C@H](C)[C@H](NC(=O)[C@@H]1CCCN1C(=O)[C@H](CC(C)C)NC(=O)[C@@H](N)Cc1ccccc1)C(=O)N[C@H](C(=O)N[C@@H](C)C(=O)N[C@@H](CCCCN)C(=O)N[C@@H](CC(C)C)C(=O)N[C@@H](CC(C)C)C(=O)N[C@@H](CO)C(=O)NCC(=O)N[C@@H](CC(C)C)C(=O)N[C@@H](CCC(=O)O)C(N)=O)C(C)C` (H-FLPIVAKLLSGLE-NH2) yielded an MHC10 [1] greater than 256 µM, an MIC [2] greater than 128 µM and an MIC [3] greater than 128 µM. For the same molecule, the MIC [4] was greater than 128 µM, the MIC [5] was greater than 128 µM and the MIC [6] was greater than 128 µM.
